From patent US20240158446A1, “CYCLIC COMPOUND HAVING SELECTIVE INHIBITORY ACTION ON KRAS OVER HRAS AND NRAS” (CHUGAI SEIYAKU KABUSHIKI KAISHA, priority 2021, published 2024)
Where two headings read alike, the source gives them in different places. Where a SMILES comes first, the peptide text is derived from it. Bridges are numbered along the chain shown (N, C = ends). [ ]: non-standard residue; d: D form. The star is where a group is joined. hPhe(3,5-F2-4-CF3) = N[C@@H](CCc1cc(F)c(C(F)(F)F)c(F)c1)C(=O)O; hPhe(3-Cl-4-CF3) = N[C@@H](CCc1ccc(C(F)(F)F)c(Cl)c1)C(=O)O; NPrPhe(4-CF3) = CCCN[C@@H](Cc1ccc(C(F)(F)F)cc1)C(=O)O; Pip(4,4-F2) = O=C(O)[C@@H]1CC(F)(F)CCN1; NMeGly(cPent) = CN[C@H](C(=O)O)C1CCCC1; Hyp = O=C(O)[C@@H]1C[C@@H](O)CN1; NMeD = CN[C@@H](CC(=O)O)C(=O)O; NMeL = CN[C@@H](CC(C)C)C(=O)O; NMeNva = CCC[C@H](NC)C(=O)O; hPip = O=C(O)[C@@H]1CCCCCN1; αMeS = C[C@](N)(CO)C(=O)O; Morpholide = C1CN(*)CCO1; Ac5c = NC1(C(=O)O)CCCC1; Aze = O=C(O)[C@@H]1CCN1; Sar = CNCC(=O)O; tBu = CC(C)(C)*

How the values were obtained:
[1] = target: GDP-bound KRAS wild-type protein (Homo sapiens, UniProt P01116); experiment: Binding to KRAS by surface plasmon resonance (SPR), Single Cycle Kinetics; conditions: GDP-bound KRAS wild-type protein, read-out: KRAS KD
GDP-bound KRAS wild-type protein, sequence (P01116 whole entry): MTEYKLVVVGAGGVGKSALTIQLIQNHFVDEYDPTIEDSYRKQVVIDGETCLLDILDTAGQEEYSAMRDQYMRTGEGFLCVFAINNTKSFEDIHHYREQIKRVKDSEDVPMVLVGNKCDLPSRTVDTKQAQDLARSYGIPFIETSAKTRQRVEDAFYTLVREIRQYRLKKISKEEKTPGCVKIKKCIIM

[2] = target: GDP-bound NRAS wild-type protein (Homo sapiens, UniProt P01111); experiment: Binding to NRAS by surface plasmon resonance (SPR), Single Cycle Kinetics; conditions: for NRAS/KRAS (ratio of KD value for NRAS to KD value for KRAS) / NRAS/KRAS (ratio of KD value with respect to NRAS to KD value with respect to KRAS): SPR, GDP-bound NRAS wild-type protein vs GDP-bound KRAS wild-type protein
GDP-bound NRAS wild-type protein, sequence (P01111 whole entry): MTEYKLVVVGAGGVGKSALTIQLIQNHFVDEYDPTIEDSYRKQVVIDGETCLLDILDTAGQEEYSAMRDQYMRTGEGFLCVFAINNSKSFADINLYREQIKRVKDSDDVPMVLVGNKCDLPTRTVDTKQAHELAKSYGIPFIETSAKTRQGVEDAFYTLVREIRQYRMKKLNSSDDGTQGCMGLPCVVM

[3] = target: GDP-bound HRAS wild-type protein (Homo sapiens, UniProt P01112); experiment: Binding to HRAS by surface plasmon resonance (SPR), Single Cycle Kinetics; conditions: for HRAS/KRAS (ratio of KD value for HRAS to KD value for KRAS) / HRAS/KRAS (ratio of KD value with respect to HRAS to KD value with respect to KRAS): SPR, GDP-bound HRAS wild-type protein vs GDP-bound KRAS wild-type protein
GDP-bound HRAS wild-type protein, sequence (P01112 whole entry): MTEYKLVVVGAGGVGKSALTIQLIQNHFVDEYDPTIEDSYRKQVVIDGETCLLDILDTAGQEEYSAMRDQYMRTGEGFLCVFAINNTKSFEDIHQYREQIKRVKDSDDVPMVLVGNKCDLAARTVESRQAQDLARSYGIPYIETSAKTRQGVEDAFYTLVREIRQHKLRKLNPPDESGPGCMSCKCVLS

[4] = SPR Single Cycle Kinetics, 1:1 binding model

| SMILES | Kd [1, 4] [nM] | NRAS/KRAS (ratio of KD value for NRAS to KD value for KRAS) [2] | HRAS/KRAS (ratio of KD value for HRAS to KD value for KRAS) [3] | Kd ([1]; SPR, Single Cycle Kinetics) [nM] | NRAS/KRAS (ratio of KD value with respect to NRAS to KD value with respect to KRAS) [2] | HRAS/KRAS (ratio of KD value with respect to HRAS to KD value with respect to KRAS) [3] | NRAS/KRAS (ratio of KD value with respect to GDP-bound NRAS wild-type protein to KD value with respect to KRAS) ([2]; SPR KD ratio NRAS/KRAS, class symbols) | HRAS/KRAS (ratio of KD value with respect to GDP-bound HRAS wild-type protein to KD value with respect to KRAS) ([3]; SPR KD ratio HRAS/KRAS, class symbols) |
| --- | --- | --- | --- | --- | --- | --- | --- | --- |
| CCCN1C(=O)CN(C)C(=O)CN(C)C(=O)[C@H]([C@@H](C)CC)NC(=O)[C@@H]2CCCCCN2C(=O)C[C@@H](C(=O)N2CCOCC2)N(C)C(=O)[C@H](C2CCCC2)N(C)C(=O)C2(CCCC2)NC(=O)[C@@H]2CCCN2C(=O)[C@H](CCc2ccc(C(F)(F)F)c(Cl)c2)NC(=O)CN(C)C(=O)[C@@H]1Cc1ccc(C(F)(F)F)cc1 [PP0247] ([hPip]I[Sar][Sar][NPrPhe(4-CF3)][Sar][hPhe(3-Cl-4-CF3)]P[Ac5c][NMeGly(cPent)][NMeD]-Morpholide; lactam N-11) | 0.38 | B (a compound having 3 or more and less than 10 is denoted as B) | C (A compound having a KD ratio of 0.1 or more and less than 3 is denoted as C) |  |  |  |  |  |
| CCO[C@@H]1C[C@H]2C(=O)NC3(CC(C)(C)C3)C(=O)N(C)[C@@H](C(CC)CC)C(=O)N(C)[C@H](C(=O)N(C)C)CC(=O)N(C)[C@@H](C(C)C)C(=O)N[C@@H]([C@@H](C)CC)C(=O)N(C)CC(=O)N(C)[C@H]3C/C=C\CCN(C3=O)[C@@H](Cc3ccc(C)cc3)C(=O)N(C)CC(=O)N[C@@H](CCc3ccc(Cl)c(Cl)c3)C(=O)N2C1 [PP2122] |  | AA (a compound having 20 or more is denoted as AA) | A (a compound having 10 or more and less than 20 is denoted as A) | 1.4 |  |  |  |  |
| CCCN1C(=O)CN(C)C(=O)CN(C)C(=O)[C@H]([C@@H](C)CC)NC(=O)[C@H](CC(C)C)N(C)C(=O)C[C@@H](C(=O)N(C)C)N(C)C(=O)[C@H](C2CCCC2)N(C)C(=O)[C@](C)(COC(C)(C)C)NC(=O)[C@@H]2CCCN2C(=O)[C@H](CCc2cc(F)c(C(F)(F)F)c(F)c2)NC(=O)CN(C)C(=O)[C@@H]1Cc1ccc(C(F)(F)F)cc1 [PP0743] ([NMeL]I[Sar][Sar][NPrPhe(4-CF3)][Sar][hPhe(3,5-F2-4-CF3)]P[αMeS](tBu)[NMeGly(cPent)][NMeD]-NMe2; lactam N-11) | 0.68 |  |  |  | B (a compound having 3 or more and less than 10 is denoted as B) | C (A compound having a KD ratio of 0.1 or more and less than 3 is denoted as C) |  |  |
| CCCN1C(=O)CN(C)C(=O)[C@@H]2CCN2C(=O)[C@H]([C@@H](C)CC)NC(=O)[C@H](CC(C)C)N(C)C(=O)C[C@@H](C(=O)N2CCOCC2)N(C)C(=O)[C@H](C2CCCC2)N(C)C(=O)C2(CCCC2)NC(=O)[C@@H]2CC(F)(F)CCN2C(=O)[C@H](CCc2ccc(C(F)(F)F)c(Cl)c2)NC(=O)CN(C)C(=O)[C@@H]1Cc1ccc(C(F)(F)F)cc1 [PP0312] ([NMeL]I[Aze][Sar][NPrPhe(4-CF3)][Sar][hPhe(3-Cl-4-CF3)][Pip(4,4-F2)][Ac5c][NMeGly(cPent)][NMeD]-Morpholide; lactam N-11) | 3.4 | B (a compound having 3 or more and less than 10 is denoted as B) | B (a compound having 3 or more and less than 10 is denoted as B) |  |  |  |  |  |
| CCC[C@H]1C(=O)N[C@@H]([C@@H](C)CC)C(=O)N(C)CC(=O)N(C)CC(=O)N(CCC)[C@@H](Cc2ccc(C(F)(F)F)cc2)C(=O)N(C)CC(=O)N[C@@H](CCc2ccc(C(F)(F)F)c(Cl)c2)C(=O)N2CCC[C@H]2C(=O)NC2(CCCC2)C(=O)N(C)[C@@H](C2CCCC2)C(=O)N(C)[C@H](C(=O)N2CCOCC2)CC(=O)N1C [PP0189] ([NMeNva]I[Sar][Sar][NPrPhe(4-CF3)][Sar][hPhe(3-Cl-4-CF3)]P[Ac5c][NMeGly(cPent)][NMeD]-Morpholide; lactam N-11) | 0.22 | B (a compound having 3 or more and less than 10 is denoted as B) | C (A compound having a KD ratio of 0.1 or more and less than 3 is denoted as C) |  |  |  |  |  |
| CCO[C@@H]1C[C@H]2C(=O)NC3(CCC3)C(=O)N(C)[C@@H](C3CCCC3)C(=O)N(C)[C@H](C(=O)N3CCOCC3)CC(=O)N(C)[C@@H](CC)C(=O)N[C@@H]([C@@H](C)CC)C(=O)N3CC[C@H]3C(=O)N(C)[C@H]3C[C@@H](C)CCN(C3=O)[C@@H](Cc3ccc(C(F)(F)F)cc3)C(=O)N(C)CC(=O)N[C@@H](CCc3cc(F)c(C(F)(F)F)c(F)c3)C(=O)N2C1 [PP1028] |  | B (a compound having 3 or more and less than 10 is denoted as B) | B (a compound having 3 or more and less than 10 is denoted as B) | 0.099 |  |  |  |  |
| CCO[C@@H]1C[C@H]2C(=O)NC3(CCC3)C(=O)N(C)[C@@H](C3CCCC3)C(=O)N[C@H](C)CC(=O)N(C)[C@@H](CC)C(=O)N[C@@H]([C@@H](C)CC)C(=O)N(C)CC(=O)N(C)[C@H]3C/C=C\CCN(C3=O)[C@@H](Cc3ccc(C(F)(F)F)cc3)C(=O)N(C)CC(=O)N[C@@H](CCc3cc(F)c(C(F)(F)F)c(F)c3)C(=O)N2C1 [PP1098] |  | B (a compound having 3 or more and less than 10 is denoted as B) | B (a compound having 3 or more and less than 10 is denoted as B) | 0.68 |  |  |  |  |
| CCC[C@H]1C(=O)N[C@@H]([C@@H](C)CC)C(=O)N(C)CC(=O)N(C)[C@H]2C/C=C\CCN(C2=O)[C@@H](Cc2ccc(C(F)(F)F)cc2)C(=O)N(C)CC(=O)N[C@@H](CCc2ccc(Cl)c(Cl)c2)C(=O)N2CC[C@H]2C(=O)NC2(CC(C)(C)C2)C(=O)N(C)[C@@H](C(CC)CC)C(=O)N(C)[C@H](C(=O)N(C)C)CC(=O)N1C [PP2921] | 6.9 |  |  |  |  |  | AA (a compound having 20 or more is denoted as AA) | A (a compound having 10 or more and less than 20 is denoted as A) |
| CCCN1C(=O)CN(C)C(=O)CNC(=O)[C@H]([C@@H](C)CC)NC(=O)[C@H](CC(C)C)N(C)C(=O)C[C@@H](C(=O)N2CCOCC2)NC(=O)[C@H](C2CCCC2)N(C)C(=O)C2(CCCC2)NC(=O)[C@@H]2C[C@@H](OCC)CN2C(=O)[C@H](CCc2ccc(C(F)(F)F)c(Cl)c2)NC(=O)CN(C)C(=O)[C@@H]1Cc1ccc(C(F)(F)F)cc1 [PP0329] ([NMeL]IG[Sar][NPrPhe(4-CF3)][Sar][hPhe(3-Cl-4-CF3)][Hyp](Et)[Ac5c][NMeGly(cPent)]D-Morpholide; lactam N-11) | 0.74 | B (a compound having 3 or more and less than 10 is denoted as B) | C (A compound having a KD ratio of 0.1 or more and less than 3 is denoted as C) |  |  |  |  |  |
| CCO[C@@H]1C[C@H]2C(=O)NC3(CCC3)C(=O)N(C)[C@@H](C3CCCC3)C(=O)N(C)[C@H](C(=O)N3CCOCC3)CC(=O)N(C)[C@@H](CC)C(=O)N[C@@H]([C@@H](C)CC)C(=O)N(C)CC(=O)N(C)[C@H]3CCCCCN(C3=O)[C@@H](Cc3ccc(C(F)(F)F)cc3)C(=O)N(C)CC(=O)N[C@@H](CCc3cc(F)c(C(F)(F)F)c(F)c3)C(=O)N2C1 [PP0678] | 0.47 |  |  |  | B (a compound having 3 or more and less than 10 is denoted as B) | B (a compound having 3 or more and less than 10 is denoted as B) |  |  |
| CC[C@H](C)[C@@H]1NC(=O)[C@H](CC(C)C)N(C)C(=O)C[C@@H](C(=O)N2CCOCC2)N(C)C(=O)[C@H](C2CCCC2)N(C)C(=O)C2(CCOCC2)NC(=O)[C@@H]2CCCN2C(=O)[C@H](CCc2cc(F)c(C(F)(F)F)c(F)c2)NC(=O)CN(C)C(=O)[C@H](Cc2ccc(C(F)(F)F)cc2)N2CCCCC[C@@H](C2=O)N(C)C(=O)CN(C)C1=O [PP0502] | 12 |  |  |  | A (a compound having 10 or more and less than 20 is denoted as A) | B (a compound having 3 or more and less than 10 is denoted as B) |  |  |
| CCO[C@@H]1C[C@H]2C(=O)NC3(CCC3)C(=O)N(C)[C@@H](C3CCCC3)C(=O)N(C)[C@H](C(=O)N(C)C)CC(=O)N(C)[C@@H](C)C(=O)N[C@@H]([C@@H](C)CC)C(=O)N(C)CC(=O)N(C)[C@H]3CCCCCN(C3=O)[C@@H](Cc3ccc(C(F)(F)F)cc3)C(=O)N(C)CC(=O)N[C@@H](CCc3cc(F)c(C(F)(F)F)c(F)c3)C(=O)N2C1 [PP0476] | 0.2 |  |  |  | B (a compound having 3 or more and less than 10 is denoted as B) | B (a compound having 3 or more and less than 10 is denoted as B) |  |  |
| CCO[C@@H]1C[C@H]2C(=O)NC3(CCC3)C(=O)N(C)[C@@H](C3CCCC3)C(=O)N(C)[C@H](C(=O)N3CCOCC3)CC(=O)N(C)[C@@H](CC)C(=O)N[C@@H]([C@@H](C)CC)C(=O)N3CC[C@H]3C(=O)N(C)[C@H]3CC(C)=CCN(C3=O)[C@@H](Cc3ccc(C(F)(F)F)cc3)C(=O)N(C)CC(=O)N[C@@H](CCc3cc(F)c(C(F)(F)F)c(F)c3)C(=O)N2C1 [PP1042] |  | C (A compound having a KD ratio of 0.1 or more and less than 3 is denoted as C) | C (A compound having a KD ratio of 0.1 or more and less than 3 is denoted as C) | 1.3 |  |  |  |  |
